The source of these data is ChEMBL document CHEMBL4613276, “Discovery of New 1,1'-Biphenyl-4-sulfonamides as Selective Subnanomolar Human Carbonic Anhydrase II Inhibitors” (ACS Med Chem Lett, 2020).

Each structure is given as a SMILES string.

Test [1] deals with Carbonic anhydrase 1 (Homo sapiens, UniProt P00915). Description: Inhibition of recombinant human carbonic anhydrase 1 preincubated with enzyme for 10 mins by phenol red dye based stopped flow CO2 hydration assay.
Test [2] has as its target Carbonic anhydrase 2 (Homo sapiens, UniProt P00918). Description: Inhibition of recombinant human carbonic anhydrase 2 preincubated with enzyme for 10 mins by phenol red dye based stopped flow CO2 hydration assay.
In test [3] the target is Carbonic anhydrase 9 (Homo sapiens, UniProt Q16790).
Description: Inhibition of recombinant human carbonic anhydrase 9 preincubated with enzyme for 10 mins by phenol red dye based stopped flow CO2 hydration assay

Sequence of Carbonic anhydrase 1 (P00915 whole entry): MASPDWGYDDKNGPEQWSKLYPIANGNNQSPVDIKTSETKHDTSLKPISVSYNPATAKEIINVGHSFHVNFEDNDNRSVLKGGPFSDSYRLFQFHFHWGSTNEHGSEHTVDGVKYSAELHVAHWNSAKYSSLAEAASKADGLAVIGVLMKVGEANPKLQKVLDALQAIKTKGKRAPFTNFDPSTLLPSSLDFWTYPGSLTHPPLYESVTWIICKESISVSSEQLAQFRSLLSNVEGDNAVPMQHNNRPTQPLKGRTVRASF

In the case of `Nc1cccc(C(O)c2ccc(-c3ccc(S(N)(=O)=O)cc3)cc2)c1` (stereo not drawn), the results for the Ki in test [1], in test [2] and in test [3] were 33.1 nM, 0.78 nM and 464 nM, respectively.
For `Nc1cccc(C(=O)c2ccc(-c3ccc(S(N)(=O)=O)cc3)cc2)c1`, in that order: 87.3 nM, 9.8 nM and 266 nM.
For `NS(=O)(=O)c1ccc(-c2ccc(C3OC(=O)c4ccccc43)cc2)cc1` (stereo not drawn), in that order: 80.1 nM, 0.7 nM and 249 nM.
For `Nc1cccc(Cc2ccc(-c3ccc(S(N)(=O)=O)cc3)cc2)c1`, in that order: 5.9 nM, 0.92 nM and 556 nM.
On to `NS(=O)(=O)c1ccc(-c2ccc(C(=O)c3ccccc3C(=O)O)cc2)cc1`, for which the Ki (commonly the equilibrium dissociation constant of an inhibitor or competing ligand from its target) stood at 39.4 nM in test [1], 0.83 nM in test [2] and 469 nM in test [3].
As to `NS(=O)(=O)c1ccc(-c2ccc(Cc3ccccc3C(=O)O)cc2)cc1`, the Ki in test [1] amounted to 6.8 nM; in test [2], 0.69 nM; in test [3] it was 437 nM.
Turning to `NS(=O)(=O)c1ccc(-c2ccc(C(O)c3cccc(C(=O)O)c3)cc2)cc1` (stereo not drawn), the Ki worked out at 6.9 nM in test [1], 0.83 nM in test [2] and 88.4 nM in test [3].
For `Nc1ccccc1C(=O)c1ccc(-c2ccc(S(N)(=O)=O)cc2)cc1`, in that order: 218 nM, 31 nM and 289 nM.
For `NS(=O)(=O)c1ccc(-c2ccc(C(=O)c3cccc(C(=O)O)c3)cc2)cc1`, in that order: 7.3 nM, 0.94 nM and 491 nM.
On to `Nc1ccccc1C(O)c1ccc(-c2ccc(S(N)(=O)=O)cc2)cc1` (stereo not drawn), for which the inhibition constant (Ki) in test [1] is 8.4 nM; in test [2] it was 0.97 nM; in test [3], 92 nM.
For `NS(=O)(=O)c1ccc(-c2ccc(Cc3cccc(C(=O)O)c3)cc2)cc1`, in that order: 21.3 nM, 0.57 nM and 323 nM.
